Laboratory results from paper PMC12549564, “A thermo-sensitive peptide hydrogel loaded with paclitaxel and antimony nanosheets for synergistic photothermal-chemotherapeutic treatment of breast cancer” (Frontiers in Pharmacology, 2025).

Columns and labels:
Assay type in all cases: physicochemical
[1] = PTX release from hydrogel in vitro; conditions: hydrogel 20 mg/mL TSP-5, 2 mg/mL PTX, 0.6 mg/mL AM, PBS pH 7.4, 37 °C, 120 rpm, 7 days, HPLC, n = 3
Description: Gel sample (100 μL; 20 mg/mL TSP-5, 2 mg/mL PTX, 0.6 mg/mL AM) was prepared at 37 °C in a 1.5 mL EP tube. PBS (pH 7.4) was used to carefully wash the surface of the sample, and the cleaning solution was collected. The content of PTX not encapsulated was then determined by HPLC, and the encapsulation rate was calculated according to the formula: Encapsulation rate (%) = (PTX total –PTX in cleaning solution )/PTX total × 100%.
1 mL PBS (pH 7.4) was added as release medium, and the EP tube was placed in a thermostatic oscillator (120 rpm, 37 °C). All the release solution were carefully collected at different time points (0.5, 2, 4, 8, 12, 24, 48, 72, 96, 120, 144 and168 h), and the same volume of fresh release media was added. For the laser group, samples were irradiated (808 nm, 1 W/cm^2, 5 min) before each sampling. PTX release was quantified by HPLC.

[2] = AM concentration study: gelation time of TSP-5 loaded with AM; conditions: TSP-5 20 mg/mL
Description: (§1) The gelation behavior of TSP-5 was evaluated at various concentrations, temperatures, and AM concentrations. Gel formation was assessed via vial inversion.
AM concentration study: Aqueous solutions of TSP-5 (20 mg/mL) was prepared at 25 °C and AM suspension of different concentrations (0.2, 0.4, 0.6, 0.8 and 1.0 mg/mL) was added. The sample was then placed in a water bath at 37 °C and 45 °C respectively to observe the gelatinization.

[3] = Concentration study: solubility of TSP-5 in water; conditions: for Solubility of TSP-5: aqueous solution, pH 7.4, 25 °C
Description: Concentration study: At room temperature (25 °C), aqueous solutions of TSP-5 was prepared at concentrations of 15 mg/mL, 20 mg/mL, 25 mg/mL and 30 mg/mL, respectively, and adjusted to pH 7.4 with NaOH (0.5 M) and HCl (0.1 M). Gel formation was assessed via vial inversion.

[4] = Temperature study: gelation of TSP-5, vial inversion; set-up: key: L: liquid; IS: insoluble; SS: slightly soluble; conditions: TSP-5 20 mg/mL, water bath 30 °C
Description: as §1
(§2) Temperature study: Aqueous solutions of TSP-5 (20 mg/mL) were prepared and then placed in water bath at 30 °C, 37 °C, 40 °C, 45 °C, 50 °C and 55 °C respectively to observe the gelatinization.

[5] = as above; conditions: for Gelation state: TSP-5 aqueous solution 20 mg/mL
Description: as §1, §2

[6] = as above; set-up: key: L: liquid; VL: viscous liquid; SG: stable gel; UG: unstable gel; conditions: TSP-5 20 mg/mL, water bath 40 °C
Description: as §1, §2

[7] = DLS particle size of TSP-5 hydrogel at different temperatures
[8] = TSP-5 20 mg/mL, water bath 37 °C

Molecule: CC(=O)O[C@H]1C(=O)[C@@]2(C)[C@H]([C@H](OC(=O)c3ccccc3)[C@]3(O)C[C@H](OC(=O)[C@H](O)[C@@H](NC(=O)c4ccccc4)c4ccccc4)C(C)=C1C3(C)C)[C@]1(OC(C)=O)CO[C@@H]1C[C@@H]2O [PTX, Paclitaxel]
- Cumulative release of PTX from the hydrogel ([1]; with laser (808 nm, 1 W/cm^2, 5 min before each sampling)): 61.83%
- Cumulative release of PTX from the hydrogel ([1]; without laser): 42.81%

Molecule: Ac-DDIIIVPGVGK-NH2 [TSP-5, Ac-DDIII-VPGVG-K-NH2]
- Gelation time: SG (stable gel) ([2]; AM 0.2 mg/mL, 37 °C): 40 min
- Gelation time: VL (viscous liquid) ([2]; AM 0.2 mg/mL, 37 °C): 15 min
- Gelation time: UG (unstable gel) ([2]; AM 0.2 mg/mL, 45 °C): 39 min
- Gelation time: VL (viscous liquid) ([2]; AM 0.2 mg/mL, 45 °C): 3 min
- Gelation time: SG (stable gel) ([2]; AM 0.4 mg/mL, 37 °C): 33 min
- Gelation time: VL (viscous liquid) ([2]; AM 0.4 mg/mL, 37 °C): 14 min
- Gelation time: UG (unstable gel) ([2]; AM 0.4 mg/mL, 45 °C): 33 min
- Gelation time: VL (viscous liquid) ([2]; AM 0.4 mg/mL, 45 °C): 4 min
- Gelation time: SG (stable gel) ([2]; AM 0.6 mg/mL, 37 °C): 30 min
- Gelation time: VL (viscous liquid) ([2]; AM 0.6 mg/mL, 37 °C): 10 min
- Gelation time: UG (unstable gel) ([2]; AM 0.6 mg/mL, 45 °C): 30 min
- Gelation time: VL (viscous liquid) ([2]; AM 0.6 mg/mL, 45 °C): 2 min
- Gelation time: SG (stable gel) ([2]; AM 0.8 mg/mL, 37 °C): 30 min
- Gelation time: VL (viscous liquid) ([2]; AM 0.8 mg/mL, 37 °C): 9 min
- Gelation time: UG (unstable gel) ([2]; AM 0.8 mg/mL, 45 °C): 30 min
- Gelation time: VL (viscous liquid) ([2]; AM 0.8 mg/mL, 45 °C): 2 min
- Solubility of TSP-5 ([3]; peptide 15 mg/mL): L (liquid)
- Solubility of TSP-5 ([3]; peptide 20 mg/mL): L (liquid)
- Solubility of TSP-5 ([3]; peptide 25 mg/mL): SS (slightly soluble)
- Solubility of TSP-5 ([3]; peptide 30 mg/mL): IS (insoluble)
- Hydrogel formation ([3]; pH 7.4, 15–30 mg/mL, 25 °C, vial inversion): no hydrogel formation was observed
- Gelation state [4]: L
- Gelation: time given for SG (stable gel) [5, 8]: 32 min
- Gelation: time given for VL (viscous liquid) [5, 8]: 10 min
- Gelation state ([5]; pH 7.4, 37 °C): stable hydrogel
- Gelation state ([5]; pH 7.4, 45 °C): completely viscous liquid
- Gelation state [6]: SG
- Hydrodynamic size (DLS) ([7]; 37 °C): ~1,300 nm
- Hydrodynamic size (DLS) ([7]; 45 °C): ~350 nm
